From patent EP4755891A1, “ARF1 INHIBITOR AND USE THEREOF” (AOBIO PHARMACEUTICAL CO., LTD., priority 2023, dated 2025)
“Also recorded” adds a separate entry of the source. Read-outs that look alike come from different tables or passages of the source.

What was measured:
[1] = Plasma stability, rat plasma; format: in vitro ADME; settings: 37°C; for remaining amount in plasma: rat plasma, 2.0 µM
Protocol: (§1) At 37°C, 2.0 µM of the compound was co-incubated with plasma samples from five species (mouse, rat, dog, cynomolgus monkey, human) for 120 minutes. The concentration of the compound in the samples was detected by the liquid chromatography-tandem mass spectrometry (LC-MS/MS) method, and the half-life (T1/2) was calculated.

[2] = system: CT26 colon cancer; experiment: Inhibition of CT26 colon cancer in BALB/c mice (Example 47, 5 mg/kg); format: in vivo; settings: gavaged daily, two consecutive weeks
Protocol: In this example, the inhibitory effects of Compounds 9, 11-3, 25, 26, 27, and DU102 on colon cancer growth were tested.
Murine CT26 cells were inoculated into the left abdomen of 6-week-old male mice at a dose of 5×10^5 cells per mouse. Approximately 7 days later, the mice were randomly divided into two groups: the control group or the compound treatment group. They were gavaged daily with either the vehicle control (ddH2O or 5% DMSO in corn oil) or 5 mg/kg of Compounds 9, 11-3, 25, 26, or 27 (dissolved in the corresponding vehicle) for two consecutive weeks. Tumor diameters were measured every 2-3 days using a digital caliper (ULINE, Cat^# H-7352), and the tumor volume was calculated using the formula ½ × longitudinal diameter (length) × maximum transverse diameter (width). When the maximum tumor volume reached 2000 mm^3, the mice were euthanized.

[3] = Plasma stability, mouse plasma; format: in vitro ADME; settings: 2.0 µM, 37°C
Protocol: as §1

[4] = Solubility in DMSO and H2O
[5] = Pharmacokinetic study in SD rats; format: in vivo
Protocol: In this experiment, six male SD rats were divided into two groups based on similar body weight. These rats were administered Compound 9 via single intravenous injection and oral gavage, respectively. The intravenous injection dose was 2 mg/kg, while the oral gavage dose was 10 mg/kg. The vehicle for both intravenous and oral administration was a clear solution of 5% DMSO + 5% PEG400 + 90% water. The concentration for intravenous injection was 0.4 mg/mL, and for oral gavage was 1 mg/mL. K2-EDTA was used as the anticoagulant. The blood sampling time points were all at: 0.083, 0.25, 0.5, 1, 3, 6, 12, and 24 hours.
Blood samples of 0.02 mL were collected from the saphenous vein of all experimental animals, and the actual blood collection time was recorded. In this experiment, the deviation of the blood sampling time from the theoretical sampling time complied with the regulations (points within 1 hour after administration were within ±1 minute, and all others were within 5% of the theoretical time). After blood sample collection, the blood samples were immediately transferred to labeled centrifuge tubes containing K2-EDTA (0.5 M). The samples were then centrifuged (3000 g, 4°C, 15 minutes), and the plasma was collected. The plasma was transferred to a pre-cooled centrifuge tube, flash-frozen in dry ice, and stored in an ultra-low temperature freezer at -60°C or less until LC-MS/MS analysis was performed.

[6] = Plasma stability, dog plasma; format: in vitro ADME; settings: 2.0 µM, 37°C
Protocol: as §1

[7] = system: NF-κB signaling pathway; experiment: Activation of NF-κB signaling pathway (phosphorylated P65, Western blot); format: cell-based, Murine; settings: CT26 cells; FIG. 6
Protocol: In this example, Compounds 3 and 9 synthesized in the above preparation examples were tested for their ability to activate the NF-κB signaling pathway, as indicated by an increase of phosphorylated P65. GCA, a known Arf1 inhibitor, was used as a positive control.
In CT26 cells treated with DMSO, GCA, Compound 3, or Compound 9, the relevant protein levels were evaluated by Western blot analysis as previously described (Wang et al., 2020).

[8] = system: B16-F10 melanoma; experiment: Inhibition of B16-F10 melanoma in C57B/6 mice; format: in vivo; settings: 5 mg/kg, oral, two consecutive weeks
Protocol: In this example, the inhibitory effect of Compound 9 synthesized in the above preparation example on melanoma tumor growth was tested.
Murine B16-F10 cells were inoculated at a dose of 5×10^5 cells per mouse into the left abdomen of 6-week-old male mice. Approximately 7 days later, the mice were treated orally with ddH2O or the novel Arf1 inhibitor for two consecutive weeks. The mice were randomly divided into three groups: the control group, the Compound 9 treatment group, and the DU102 treatment group. The mice were administered ddH2O, 5 mg/kg of Compound 9 (dissolved in ddH2O), or 5 mg/kg of DU102 (dissolved in a solvent composed of 5% DMSO + 95% corn oil, as a positive control) for two consecutive weeks. Tumor diameters were measured every 2-3 days using a digital caliper (ULINE, Cat^# H-7352), and the tumor volume was calculated using the formula ½ × longitudinal diameter (length) × maximum transverse diameter (width). When the maximum tumor volume reached 2000 mm^3, the mice were euthanized.

[9] = system: Mouse neuroblastoma N2A; experiment: Test for Golgi morphology abnormalities (GM130 immunofluorescence); format: cell-based; settings: N2A cells; FIG. 4
Protocol: GCA, a known Arf1 inhibitor, was used as a positive control.
Mouse neuroblastoma N2A (N2a, ATCC®CCL-131™) was cultured, treated, and subjected to immunofluorescence staining as previously reported (Wang et al., 2021).

[10] = molecular target: T1, Arf1 (Homo sapiens, UniProt P84077); experiment: Inhibition test of Arf1 activation (Active Arf1 pull-down and detection kit, Western blot); format: cell-based; settings: lysate of liver cancer Huh-7 cells; GTP-bound Arf1; FIG. 3
T1 construct: endogenous in cells; host or cells: Huh-7 liver cancer cells (lysate)
Protocol: In this example, the inhibitory ability of Compounds 3 and 9 synthesized in the above preparation examples on Arf1 activation was tested. The Pierce Active Arf1 Pull-Down and Detection Kit (Thermo Scientific, Cat#16121) was used with the lysate of liver cancer Huh-7 cells to detect the activated Arf1. It is a complete kit that selectively enriches and detects GTP-bound Arf1 GTPase through specific protein interactions with the GGA3 protein-binding domain.

T1 sequence (P84077 whole entry): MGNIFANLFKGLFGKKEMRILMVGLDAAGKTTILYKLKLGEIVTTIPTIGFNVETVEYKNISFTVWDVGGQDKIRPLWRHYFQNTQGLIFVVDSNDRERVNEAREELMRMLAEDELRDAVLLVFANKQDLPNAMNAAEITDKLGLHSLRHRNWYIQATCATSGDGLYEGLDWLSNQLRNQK

Question: With `Cc1csc2ncnc(Nc3ccc4c(c3)ncn4C)c12` [Compound 9, 5-Methyl-N-(1-methyl-1H-benzo[d]imidazol-5-yl)thieno[2,3-d]pyrimidin-4-amine] as the molecule, how does the half-life at 2 µM ([1]; plasma, printed in the Rat row) read?
Answer: > 289 min

Question: And the “remaining amount in plasma” value ([1]; time point 0 min)?
Answer: 100.0%

Question: What about the “remaining amount in plasma” value ([1]; time point 10 min) of the same molecule?
Answer: 102.1%

Question: What about the “remaining amount in plasma” value ([1]; time point 30 min) of the same molecule?
Answer: 93.5%

Question: What about the “remaining amount in plasma” value ([1]; time point 60 min) of the same molecule?
Answer: 99.3%

Question: And the “remaining amount in plasma” value ([1]; time point 120 min)?
Answer: 93.2%

Question: What about the “size of murine colon cancer” value ([2]; FIG. 9A) of the same molecule?
Answer: size of murine colon cancer inhibited

Question: What about the “weight of murine colon cancer” value ([2]; FIG. 9B) of the same molecule?
Answer: weight of murine colon cancer reduced significantly

Question: What about the “inhibition of CT26 colon cancer” value ([2]; FIG. 9 and FIG. 10) of the same molecule?
Answer: effectively inhibit CT26 colon cancer

Question: What about the “remaining amount in plasma” value ([3]; time point 0 min) of the same molecule?
Answer: 100.0%

Question: And the “remaining amount in plasma” value ([3]; time point 10 min)?
Answer: 99.3%

Question: And the “remaining amount in plasma” value ([3]; time point 30 min)?
Answer: 98.6%

Question: And the “remaining amount in plasma” value ([3]; time point 60 min)?
Answer: 104.1%

Question: What about the “remaining amount in plasma” value ([3]; time point 120 min) of the same molecule?
Answer: 96.5%

Question: What about the “solubility in DMSO” value ([4]; DMSO, FIG. 2A) of the same molecule?
Answer: soluble

Question: And the “solubility in H2O” value ([4]; H2O, FIG. 2B)?
Answer: high solubility

Question: What about the absorption in rats ([5]; conclusion in words) of the same molecule?
Answer: rapidly absorbed

Question: And the “apparent volume of distribution” value ([5]; conclusion in words)?
Answer: moderate apparent volume of distribution

Question: And the oral bioavailability ([5]; conclusion in words)?
Answer: high oral bioavailability

Question: And the Vd ([5]; rat, plasma, Intravenous Injection, 2 mg/kg, male SD rats, read-out: Apparent Volume of Distribution Vdss)?
Answer: 0.647 L/kg

Question: What about the clearance ([5]; rat, plasma, Intravenous Injection, 2 mg/kg, male SD rats, read-out: Clearance Cl) of the same molecule?
Answer: 39.8 mL/min/kg

Question: What about the half-life ([5]; rat, plasma, Intravenous Injection, 2 mg/kg, male SD rats, read-out: Half-Life T1/2 (converted)) of the same molecule?
Answer: 11 min

Question: And the bioavailability ([5]; rat, plasma, Oral Gavage, 10 mg/kg vs intravenous 2 mg/kg, male SD rats, read-out: Bioavailability F)?
Answer: 164%

Question: And the AUC(0-t) ([5]; rat, plasma, Oral Gavage, 10 mg/kg, male SD rats, read-out: Exposure AUC0-last)?
Answer: 6840 ng·h/mL

Question: What about the half-life ([5]; rat, plasma, Oral Gavage, 10 mg/kg, male SD rats, read-out: Half-life T1/2 (converted)) of the same molecule?
Answer: 34.2 min

Question: And the Cmax ([5]; rat, plasma, Oral Gavage, 10 mg/kg, male SD rats, read-out: Maximum Concentration Cmax)?
Answer: 4770 ng/mL

Question: And the “remaining amount in plasma” value ([6]; time point 0 min)?
Answer: 100.0%

Question: What about the “remaining amount in plasma” value ([6]; time point 10 min) of the same molecule?
Answer: 99.0%

Question: And the “remaining amount in plasma” value ([6]; time point 30 min)?
Answer: 94.0%

Question: What about the “remaining amount in plasma” value ([6]; time point 60 min) of the same molecule?
Answer: 98.8%

Question: And the “remaining amount in plasma” value ([6]; time point 120 min)?
Answer: 86.0%

Question: What about the “phosphorylation level of P65” value [7] of the same molecule?
Answer: increase the phosphorylation level of P65

Question: What about the B16-F10 melanoma growth ([8]; FIG. 8) of the same molecule?
Answer: effectively inhibit B16-F10 melanoma growth

Question: What about the “size of murine melanoma tumors” value ([8]; FIG. 8A) of the same molecule?
Answer: significantly inhibited the size of murine melanoma tumors

Question: And the “weight of murine melanoma tumors” value ([8]; FIG. 8B)?
Answer: significantly reduced the weight of murine melanoma tumors

Question: What about the “Golgi morphology (Golgi apparatus defects, distribution of Golgi marker GM130)” value [9] of the same molecule?
Answer: induce Golgi apparatus defects; also recorded: effectively induce morphological changes in the Golgi apparatus

Question: And the “inhibition of Arf1 activation” value [10]?
Answer: effectively inhibit the activation of Arf1; also recorded: effective inhibitors
